Our source for the IC50 values is article PMC11597817, “Modulation of Multispecific Transporters by Uncaria tomentosa Extract and Its Major Phytoconstituents” (Pharmaceutics, 2024).

The data set addresses T1, OCT1 (Homo sapiens, UniProt O15245).
T1 construct: expressed in transfected cells; host or cells: HEK293 (lentiviral transduction; cDNA synthesised by GenScript)
T1 sequence (O15245 1-554): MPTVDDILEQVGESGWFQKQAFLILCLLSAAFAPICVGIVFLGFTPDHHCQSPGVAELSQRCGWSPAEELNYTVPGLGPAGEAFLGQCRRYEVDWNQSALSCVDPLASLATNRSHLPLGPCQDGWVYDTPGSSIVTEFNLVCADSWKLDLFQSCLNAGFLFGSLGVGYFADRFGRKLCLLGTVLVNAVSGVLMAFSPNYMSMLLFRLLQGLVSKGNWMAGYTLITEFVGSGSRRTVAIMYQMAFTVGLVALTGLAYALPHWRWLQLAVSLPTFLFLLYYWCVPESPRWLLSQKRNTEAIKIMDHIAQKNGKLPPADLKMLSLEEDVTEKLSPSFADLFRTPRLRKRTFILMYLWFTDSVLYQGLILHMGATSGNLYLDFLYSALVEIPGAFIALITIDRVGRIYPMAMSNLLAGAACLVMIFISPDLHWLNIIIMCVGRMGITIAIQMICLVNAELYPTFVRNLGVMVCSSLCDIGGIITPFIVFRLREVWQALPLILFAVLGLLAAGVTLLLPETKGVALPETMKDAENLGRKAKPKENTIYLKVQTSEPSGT
Nature of the data set: Uptake inhibition assay, OCT1-overexpressing HEK293 cells. The format is cell-based. The note with it: oxindole alkaloids, substrate metformin, read-out: IC50 (95% CI of IC50). The source says: The human embryonic kidney 293 (HEK293) cell line was purchased from Invitrogen/ThermoFisher (Waltham, MA, USA). Madin–Darby canine kidney II (MDCKII) wild type cells were obtained from the European Collection of Authenticated Cell Cultures (ECACC catalog no. 00062107). HEK293 cells overexpressing the human uptake OATP1B1 (NCBI Reference Sequence: NM_006446.4), OATP1B3 (NM_019844), OATP2B1 (NM_007256), OATP1A2 (NM_134431), OAT1-3 (BC033682.1; NM_006672.3; BC022387), OCT1-3 (BC126364.1; NM_003058; NM_021977), OCTN1 (NM_003059.3), NTCP (NM_003049.3), MATE1 (NM_018242.3), MATE2K (NM_001099646.2), ENT4 (NM_001040661.1), SGLT2 (AJ133127.1), ASCT1/2 (NM_003038.5; NM_005628.3), LAT1/2 (NM_003486.6; NM_012244.4), and THTR1/2 (NM_006996; NM_025243) and mock and human efflux BCRP (NM_004827.2), BSEP (NM_003742.2), MDR1 (NM_000927.4), and MRP1-5 (NM_004996; NM_000392.4; BC137347.1; NM_005845.4; NM_005688.2) transporters as well as MDCKII overexpressing human ENT1/2 (NM_001078177; NM_001532.2) and URAT1 (BC053348) transporters were created by lentiviral transduction. The cDNA encoding respective transporters were synthetized and cloned by GenScript (Piscataway, NJ, USA). The production of lentivirus supernatants, the transduction of the cells, cloning, functional characterization, and validation were performed by Charles River Laboratories Hungary Kft. (Budapest, Hungary).
Cell cultures were maintained in Dulbecco’s modified Eagle’s medium (DMEM), 4.5 g/L of glucose, supplemented with GlutaMAX^TM, 2.5 v/v % penicillin/streptomycin, and 10% fetal bovine serum (FBS) at 37 °C, 5% CO2, and 90% relative humidity. The medium was replaced two or three times per week; cells were harvested using TrypLE™ Express (ThermoFisher) at 80 to 90% confluence and passaged or seeded. HEK293 cells of passage < 12 (from thawing) and MDCKII cells of passage < 18 were seeded at a density of 1 × 10^5 cells/well onto poly-D-lysine-coated or -non-coated 96-well plates and incubated for 18–22 h prior to inhibition assays.
Plated cells were preincubated with a transport buffer (HBSS) containing 30 or 150 µg/mL of UT extract or 100 µM of isopteropodine, mitraphylline, or uncarine D for 15 min at an appropriate temperature. […] For radiolabeled substrates, accumulation was measured by liquid scintillation counting (MicroBeta Scintillation Counter, PerkinElmer).
The transporter-mediated uptake and ATP-dependent transport were determined by subtracting the activity of the control cell/transporter abundant-membrane in the presence of AMP from the activity of the transporter-overexpressing cell/transporter-abundant membrane in the presence of ATP. The relative transporter-specific accumulation was expressed as the percent of DMSO activity. […] Confidence intervals (CIs) of 95% were also determined. […]

Like-named read-outs stand apart in the source and are kept apart here.

As to `COC(=O)C1=CO[C@@H](C)[C@@H]2CN3CC[C@@]4(C(=O)Nc5ccccc54)[C@@H]3C[C@H]12` [isopteropodine], the half-inhibitory concentration (IC50) (as a rule, the concentration at which inhibition is half-maximal) amounted to 2.8 µM. Besides, the IC50 (listed as Isopteropodine) amounted to 2.81 µM.

Take `COC(=O)C1=CO[C@@H](C)[C@H]2CN3CC[C@]4(C(=O)Nc5ccccc54)[C@@H]3C[C@H]12` [mitraphylline]: the IC50 was determined as 7.1 µM. For the same molecule, the IC50 (listed as Mitraphylline) was 7.05 µM.
